Assay results as given in US5679671A, “Amino acid derivative” (Eisai Co., Ltd., priority 1993, dated 1997).

Legend:
[1] = target: T1, NEP (Rattus norvegicus, UniProt P07861); experiment: NEP inhibition activity (Experiment C-1); assay type: biochemical; conditions: Table C-1
T1 sequence (P07861 1-750): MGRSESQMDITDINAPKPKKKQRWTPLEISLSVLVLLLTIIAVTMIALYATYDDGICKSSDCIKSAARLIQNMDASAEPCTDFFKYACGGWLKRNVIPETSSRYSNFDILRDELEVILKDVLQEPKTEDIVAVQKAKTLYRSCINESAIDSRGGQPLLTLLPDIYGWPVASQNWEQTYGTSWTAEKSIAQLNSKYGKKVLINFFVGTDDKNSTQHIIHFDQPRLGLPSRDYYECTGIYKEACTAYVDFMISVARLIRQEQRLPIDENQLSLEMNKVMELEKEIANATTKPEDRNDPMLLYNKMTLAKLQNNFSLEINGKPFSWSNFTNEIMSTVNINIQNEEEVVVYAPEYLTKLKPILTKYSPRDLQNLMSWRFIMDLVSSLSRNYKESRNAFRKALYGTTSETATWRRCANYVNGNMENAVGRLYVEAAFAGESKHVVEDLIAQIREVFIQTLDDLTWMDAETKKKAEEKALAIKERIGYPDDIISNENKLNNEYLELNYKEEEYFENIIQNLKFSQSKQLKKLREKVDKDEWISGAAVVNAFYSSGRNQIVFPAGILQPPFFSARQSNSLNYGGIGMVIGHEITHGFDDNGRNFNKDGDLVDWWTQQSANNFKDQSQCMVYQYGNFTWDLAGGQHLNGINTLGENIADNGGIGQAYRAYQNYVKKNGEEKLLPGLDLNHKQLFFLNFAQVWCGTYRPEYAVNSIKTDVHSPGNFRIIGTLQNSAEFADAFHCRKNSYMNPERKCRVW
Description: The NEP activity was determined by the following manner in accordance with the method of Orlowsky and Wilk (Purification and Specificity of a Membrane-Bound Metalloendpeptidase from Bovine Pituitaries., Marian Orlowsky and Shrwin Wilk, Biochemistry, 1981, 20, 4942-4950.).
(§1) As a substrate, benzoyl-glycyl-arginyl-arginyl-2-naphthylamide (benzoyl-Gly-Arg-Arg-2-naphthylamide (Nova Biochem, Switzerland)) was used. In the presence of an NEP enzyme preparation and excessive leucine aminopeptidase (sigma chemical Co., U.S.A.), the liberated naphthylamine was made to undergo color development with first garnet (Sigma chemical Co., U.S.A.), followed by the measurement of the absorbance at a wavelength of 540 nm.
With respect to the NEP inhibition activity, the test compound was added to the experimental system as described above in such a manner as to give the final concentrations of 1, 3, 10, 30, 100, 300 and 1000 nM, an inhibition curve was prepared, and then the concentration at which 50% inhibition was achieved was taken as IC50. As a comparative compound, [4S-[4α,7α(R*),12bβ]]-7-[(1-oxo-2-(S)-thio-3-phenyl-propyl)amino]-1,2,3,4,6,7,8,12b-octahydro-6-oxopyrido-[2,1-a][2]benzazepine-4-carboxylic acid was used.

[2] = tested on: 2K-1C-Goldblatt Hypertensive Rat; experiment: Hypotensive effect on 2K-1C-Goldblatt hypertensive rat, oral (Experiment C-3); assay type: in vivo, male Sprague Dawley rats
Description: A silver clip with a slit of 0.25 mm in width was fitted into the left renal artery of each of male Sprague Dawley rats (aged 6 to 7 weeks) and, after three weeks, rats showing a systolic blood pressure of 180 mmHg or above were employed. One to several drops of a 1N aqueous solution of sodium hydroxide were dropped into purified water and each test compound was dissolved or emulsified therein to prepare it at a dose of 5 ml/kg, followed by orally administration. After keeping the rats in an incubator at 45° C. for 5 to 10 minutes, the systolic blood pressure was measured by the indirect method of tail artery plethysmography. As a comparative compound, [4S-[4α,7α(R*),12bβ]]-7-[(1-oxo-2-(S)-thio-3-phenyl-propyl)amino[-1,2,3,4,6,7,8,12b-octahydro-6-oxo-pyrido[2,1-a][2]benzazepine-4-carboxylic acid was used.

[3] = tested on: ANP-treated SHR; experiment: Diuretic effect on ANP-treated SHR, i.v. (Experiment C-4); assay type: in vivo, Spontaneously hypertensive male rats
Description: 50 ng/kg/min of rat Atrial natriuretic peptide (r-ANP) was intravenously injected into Spontaneously hypertensive male rats (aged 14 to 16 weeks). When the hematogenic dynamics and the blood r-ANP level became stable 1 hour after the injection, the diuretic effect of each test compound was examined. The diuretic effect was determined by intravenously injecting the test compound and measuring an increase (% rate of change) in urinary accumulation within 20 minutes. As a comparative compound, [4S-[4α,7α(R*),12bβ]]-7-[(1-oxo-2(S)-thio-3-phenylpropyl)amino[-1,2,3,4,6,7,8,12b-octahydro-6-oxopyrido[2,1-a][2]benzazepine-4-carboxylic acid was used.

[4] = target: T1, NEP; experiment: NEP inhibition activity (Experiment E-1); assay type: biochemical; design: membrane fraction prepared from rat renal cortex; from tissue; host or cells: rat renal cortex, membrane fraction (method of Booth and Kenny); conditions: rat renal cortex membrane fraction
Description: As a source of the enzyme NEP, a membrane fraction prepared from rat renal cortex in accordance with the method of Booth and Kenny (A Rapid Method for the Purification of Microvilli from Rabbit Kidney., Andrew G. Booth and A. John Kenny, Biochem. j., 1974, 142,575-581.) was employed. The NEP activity was determined in accordance with the method of Orlowsky and Wilk (Purification and Specificity of a Membrane-Bound Metalloendpeptidase from Bovine Pituitaries., Marian Orlowsky and Shrwin Wilk, Biochemistry, 1981, 20, 4942-4950.). Now the procedure will be briefly described.
as §1, with “(benzoyl-Gly-Arg-Arg-2 naphthylamide” for “(benzoyl-Gly-Arg-Arg-2-naphthylamide”
To determine the NEP inhibition activity and the ACE inhibition activity, the inhibitor was added to the assay systems of both enzyme activities as described above in such a manner as to give the final concentrations of 1, 3, 10, 30, 100, […] and 1000 nM and inhibition curves were prepared. Then the concentration at which 50% inhibition was achieved was taken as IC50.

| IC50 [1] [µM] | IC50 [4] [µM] | SMILES | Decrease (%) in blood pressure after 1-3 hrs. ([2]; 3 mg/kg oral, after 1 hr) [%] | Decrease (%) in blood pressure after 6 hrs. ([2]; 3 mg/kg oral) [%] | Decrease (%) in blood pressure after 1-3 hrs. ([2]; 10 mg/kg oral, after 1 hr) [%] | Decrease (%) in blood pressure after 6 hrs. ([2]; 10 mg/kg oral) [%] | increase (% rate of change) in urinary accumulation within 20 minutes ([3]; 0.03 mg/kg i.v.) [%] | increase (% rate of change) in urinary accumulation within 20 minutes ([3]; 0.1 mg/kg i.v.) [%] | increase (% rate of change) in urinary accumulation within 20 minutes ([3]; 0.3 mg/kg i.v.) [%] | Decrease (%) in blood pressure after 1-3 hrs. ([2]; 1 mg/kg oral, after 2 hrs) [%] | Decrease (%) in blood pressure after 6 hrs. ([2]; 1 mg/kg oral) [%] | increase (% rate of change) in urinary accumulation within 20 minutes ([3]; 0.01 mg/kg i.v.) [%] | Decrease (%) in blood pressure after 1-3 hrs. ([2]; 1 mg/kg oral, after 3 hrs) [%] | Decrease (%) in blood pressure after 1-3 hrs. ([2]; 3 mg/kg oral, after 3 hrs) [%] |
| --- | --- | --- | --- | --- | --- | --- | --- | --- | --- | --- | --- | --- | --- | --- |
| 0.027 | 0.027 | O=C(N[C@H]1Cc2ccccc2[C@H]2CCC[C@@H](C(=O)O)N2C1=O)[C@@H](S)Cc1ccccc1 [Comp. cpd. E-1, [4S-[4α,7α(R*),12bβ]]-7-[(1-oxo-2-(S)-thio-3-phenyl-propyl)amino]-1,2,3,4,6,7,8,12b-octahydro-6-oxopyrido-[2,1-a][2]benzazepine-4-carboxylic acid, reference compound] | 15.4 | 12.9 | 14.2 | 19.1 | 220 | 370 | 360 | – | – | – | – | – |
| 0.0125 | – | CC[C@H](C)[C@H](S)C(=O)NC1CCc2ccccc2N(CC(=O)O)C1=O (stereo partly drawn) [Example A-9, 1-Carboxymethyl-3-[(2S,3S)-2-mercapto-3-methylvarelylamino]-1H-[1]benzazepin-2-one] | – | – | – | – | – | – | – | 17.3 | 20.8 | – | – | – |
| 0.0062 | – | CC[C@H](C)[C@H](S)C(=O)N[C@H]1CCc2ccccc2N(CC(=O)O)C1=O [Example A-11, (S)-3-[(2S,3S)-2-Mercapto-3-methylvarelylamino]-1-carboxymethyl-2,3,4,5-tetrahydro-1H-[1]benzazepin-2-one] | – | – | – | – | 390 | 460 | – | – | – | 220 | – | – |
| 0.0134 | – | CC[C@H](C)[C@H](S)C(=O)N[C@H]1CCC[C@H]2SC[C@@H](C(=O)O)N2C1=O [Example C-8, [3R-[3α,6α,(S*),9aβ]]-6-[[(2S,3S)-3-methyl-1-oxo-2-thiopentyl]amino]-octahydro-5-oxothiazol[3,2-a]-azepine-3-carboxylic acid] | – | – | – | – | 280 | 340 | – | 28.4 | 25.3 | 200 | – | – |
| 0.0178 | 0.014 | CC[C@H](C)[C@H](S)C(=O)N[C@H]1Cc2ccc(-c3ccccc3)cc2[C@H]2CCC[C@@H](C(=O)O)N2C1=O [Example C-14, [4S-[4α,7α(R*),12bβ]]-7-[[(2S,3S)-3-Methyl-1-oxo-2-thiopentyl]amino]-6-oxo-11-phenyl-1,2,3,4,6,7,8,12b-octahydropyrido[2,1-a][2]benzazepine-4-carboxylic acid] | – | 22.2 | – | – | 240 | 420 | 470 | – | 12.7 | – | 13.4 | 25.9 |
| – | 0.0082 | CC(C)[C@H](S)C(=O)N[C@H]1Cc2ccc(-c3ccccc3)cc2[C@H]2CCC[C@@H](C(=O)O)N2C1=O [Example E-10, [4S-[4α,7α(R*),12bβ]]-7-[(S)-2-Mercapto-3-methylbutyrylamino]-6-oxo-11-phenyl-1,2,3,4,6,7,8,12b-octahydropyrido[2,1-a][2]benzazepine-4-carboxylic acid] | – | – | – | – | – | – | – | – | – | – | – | – |
